Test results published in PubChem BioAssay AID2060622 (Molecular Pharmacology Branch, DTP, NCI, 2025).

System: 242566-281-R-J2-PDC complex spheroid viability
Assay: Anticancer human tumor 242566-281-R-J2-PDC patient-derived pancreatic carcinoma cell line growth inhibition [CLK]
Conditions: for IC50: curve of first compound; for viability, T/C: stronger effect = lower value
Outline: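 Patient-derived tumor cells grown as complex spheroids with HUVEC endothelial cells and mesenchymal stem cells, treated with drug combinations. Concentrations descend in half-log steps from near clinical Cmax, or from 10 microM if Cmax unknown.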

[1] = second compound 0.0316 µM, first compound 0.0316 µM
[2] = second compound 0.0316 µM, first compound 0.1 µM
[3] = second compound 0.1 µM, first compound 0.0316 µM
[4] = second compound 0.1 µM, first compound 0.1 µM
[5] = second compound 0.316 µM, first compound 0.0316 µM
[6] = second compound 0.316 µM, first compound 0.1 µM
[7] = second compound 1 µM, first compound 0.0316 µM
[8] = second compound 1 µM, first compound 0.1 µM
[9] = second compound 3.16 µM, first compound 0.0316 µM
[10] = second compound 3.16 µM, first compound 0.1 µM
[11] = second compound 10 µM, first compound 0.0316 µM
[12] = second compound 10 µM, first compound 0.1 µM
[13] = second compound 0.0316 µM, first compound 0.316 µM
[14] = second compound 0.0316 µM, first compound 1 µM
[15] = second compound 0.0316 µM, first compound 3.16 µM
[16] = second compound 0.0316 µM, first compound 10 µM
[17] = second compound 0.1 µM, first compound 0.316 µM
[18] = second compound 0.1 µM, first compound 1 µM
[19] = second compound 0.1 µM, first compound 3.16 µM
[20] = second compound 0.1 µM, first compound 10 µM
[21] = second compound 0.316 µM, first compound 0.316 µM
[22] = second compound 0.316 µM, first compound 1 µM
[23] = second compound 0.316 µM, first compound 3.16 µM
[24] = second compound 0.316 µM, first compound 10 µM
[25] = second compound 1 µM, first compound 0.316 µM
[26] = second compound 1 µM, first compound 1 µM
[27] = second compound 1 µM, first compound 3.16 µM
[28] = second compound 1 µM, first compound 10 µM
[29] = second compound 3.16 µM, first compound 0.316 µM
[30] = second compound 3.16 µM, first compound 1 µM
[31] = second compound 3.16 µM, first compound 3.16 µM
[32] = second compound 3.16 µM, first compound 10 µM
[33] = second compound 10 µM, first compound 0.316 µM
[34] = second compound 10 µM, first compound 1 µM
[35] = second compound 10 µM, first compound 3.16 µM
[36] = second compound 10 µM, first compound 10 µM
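Also: spheroids exposed to compounds for 7 days before readout.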
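For viability, T/C in this document: 100% = DMSO vehicle control wells.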

In the case of `Cn1ncnc1[C@H]1c2n[nH]c(=O)c3cc(F)cc(c23)N[C@@H]1c1ccc(F)cc1` + CN1CCN(c2cc(C(=O)Nc3cc4cc(-c5cnn(C)c5)ccc4cn3)ccn2)CC1, the IC50 (second compound 0.0316 µM) is reported as > 100 nM, the IC50 (second compound 0.1 µM) is reported as > 100 nM and the IC50 (second compound 0.316 µM) is reported as < 0.316 nM. For the same compound, the IC50 (second compound 1 µM) was < 0.316 nM, the IC50 (second compound 3.16 µM) was < 0.316 nM and the IC50 (second compound 10 µM) was < 0.316 nM. The viability, T/C (second compound 0.0316 µM, first compound 0.000316 µM) was 106%, the viability, T/C (second compound 0.0316 µM, first compound 0.001 µM) was 96.4% and the viability, T/C (second compound 0.0316 µM, first compound 0.00316 µM) was 99.5%. For the same compound, the viability, T/C (second compound 0.0316 µM, first compound 0.01 µM) was 107%, the viability, T/C [1] was 97.9% and the viability, T/C [2] was 88%. It also gave a viability, T/C (second compound 0.1 µM, first compound 0.000316 µM) of 87.7%, a viability, T/C (second compound 0.1 µM, first compound 0.001 µM) of 87.9% and a viability, T/C (second compound 0.1 µM, first compound 0.00316 µM) of 89.1%. It also gave a viability, T/C (second compound 0.1 µM, first compound 0.01 µM) of 86.6%, a viability, T/C [3] of 84.8% and a viability, T/C [4] of 62.9%. It also gave a viability, T/C (second compound 0.316 µM, first compound 0.000316 µM) of 34%, a viability, T/C (second compound 0.316 µM, first compound 0.001 µM) of 35% and a viability, T/C (second compound 0.316 µM, first compound 0.00316 µM) of 32.3%. It also gave a viability, T/C (second compound 0.316 µM, first compound 0.01 µM) of 30.9%, a viability, T/C [5] of 31.3% and a viability, T/C [6] of 26.8%. It also gave a viability, T/C (second compound 1 µM, first compound 0.000316 µM) of 4.47%, a viability, T/C (second compound 1 µM, first compound 0.001 µM) of 4.64% and a viability, T/C (second compound 1 µM, first compound 0.00316 µM) of 4.59%. The viability, T/C (second compound 1 µM, first compound 0.01 µM) was 4.07%, the viability, T/C [7] was 3.7% and the viability, T/C [8] was 3.76%. The viability, T/C (second compound 3.16 µM, first compound 0.000316 µM) was 6.68%, the viability, T/C (second compound 3.16 µM, first compound 0.001 µM) was 7.67% and the viability, T/C (second compound 3.16 µM, first compound 0.00316 µM) was 6.68%. It also gave a viability, T/C (second compound 3.16 µM, first compound 0.01 µM) of 5.7%, a viability, T/C [9] of 5.67% and a viability, T/C [10] of 5.8%. It also gave a viability, T/C (second compound 10 µM, first compound 0.000316 µM) of 0.94%, a viability, T/C (second compound 10 µM, first compound 0.001 µM) of 1.5% and a viability, T/C (second compound 10 µM, first compound 0.00316 µM) of 1.24%. For the same compound, the viability, T/C (second compound 10 µM, first compound 0.01 µM) was 1.06%, the viability, T/C [11] was 2.08% and the viability, T/C [12] was 1.4%.
With `Nc1ccn(C2OC(CO)C(O)C2(F)F)c(=O)n1` (stereo unspecified) + CN1CCN(c2cc(C(=O)Nc3cc4cc(-c5cnn(C)c5)ccc4cn3)ccn2)CC1 the IC50 (second compound 0.0316 µM) was < 31.6 nM, the IC50 (second compound 0.1 µM) was < 31.6 nM and the IC50 (second compound 0.316 µM) was < 31.6 nM. For the same compound, the IC50 (second compound 1 µM) was < 31.6 nM, the IC50 (second compound 3.16 µM) was < 31.6 nM and the IC50 (second compound 10 µM) was < 31.6 nM. It also gave a viability, T/C [1] of 46.6%, a viability, T/C [2] of 20.6% and a viability, T/C [13] of 10.6%. The viability, T/C [14] was 13.3%, the viability, T/C [15] was 8.86% and the viability, T/C [16] was 6.79%. It also gave a viability, T/C [3] of 48.6%, a viability, T/C [4] of 15.4% and a viability, T/C [17] of 10.2%. For the same compound, the viability, T/C [18] was 6.87%, the viability, T/C [19] was 6.64% and the viability, T/C [20] was 5.01%. The viability, T/C [5] was 23.9%, the viability, T/C [6] was 15.3% and the viability, T/C [21] was 10.9%. For the same compound, the viability, T/C [22] was 4.57%, the viability, T/C [23] was 4.57% and the viability, T/C [24] was 3.01%. It also gave a viability, T/C [7] of 4.38%, a viability, T/C [8] of 4.08% and a viability, T/C [25] of 3.98%. It also gave a viability, T/C [26] of 4.09%, a viability, T/C [27] of 4.15% and a viability, T/C [28] of 3.45%. For the same compound, the viability, T/C [9] was 7.21%, the viability, T/C [10] was 6.5% and the viability, T/C [29] was 5.9%. For the same compound, the viability, T/C [30] was 5.48%, the viability, T/C [31] was 5.49% and the viability, T/C [32] was 5.8%. For the same compound, the viability, T/C [11] was 1.62%, the viability, T/C [12] was 1.77% and the viability, T/C [33] was 1.12%. For the same compound, the viability, T/C [34] was 1.8%, the viability, T/C [35] was 1.55% and the viability, T/C [36] was 1.05%.
`O=c1[nH]cc(F)c(=O)[nH]1` + CN1CCN(c2cc(C(=O)Nc3cc4cc(-c5cnn(C)c5)ccc4cn3)ccn2)CC1 was tested, and the IC50 (second compound 0.0316 µM) was > 10000 nM, the IC50 (second compound 0.1 µM) was 5960 nM and the IC50 (second compound 0.316 µM) was < 31.6 nM. For the same compound, the IC50 (second compound 1 µM) was < 31.6 nM, the IC50 (second compound 3.16 µM) was < 31.6 nM and the IC50 (second compound 10 µM) was < 31.6 nM. It also gave a viability, T/C [1] of 109%, a viability, T/C [2] of 101% and a viability, T/C [13] of 103%. For the same compound, the viability, T/C [14] was 77%, the viability, T/C [15] was 61.4% and the viability, T/C [16] was 56.1%. The viability, T/C [3] was 97.8%, the viability, T/C [4] was 81.2% and the viability, T/C [17] was 81.7%. It also gave a viability, T/C [18] of 69.8%, a viability, T/C [19] of 54.8% and a viability, T/C [20] of 44.9%. The viability, T/C [5] was 38.5%, the viability, T/C [6] was 35.3% and the viability, T/C [21] was 30.8%. The viability, T/C [22] was 25.4%, the viability, T/C [23] was 24.9% and the viability, T/C [24] was 18.9%. The viability, T/C [7] was 4.56%, the viability, T/C [8] was 4.75% and the viability, T/C [25] was 3.93%. For the same compound, the viability, T/C [26] was 4.22%, the viability, T/C [27] was 3.79% and the viability, T/C [28] was 3.85%. For the same compound, the viability, T/C [9] was 7.11%, the viability, T/C [10] was 6.79% and the viability, T/C [29] was 6.18%. It also gave a viability, T/C [30] of 6.26%, a viability, T/C [31] of 5.72% and a viability, T/C [32] of 5.29%. For the same compound, the viability, T/C [11] was 1.55%, the viability, T/C [12] was 1.68% and the viability, T/C [33] was 1.19%. It also gave a viability, T/C [34] of 1.49%, a viability, T/C [35] of 1.43% and a viability, T/C [36] of 1.2%.
